Laboratory results as given in patent US4732902A, “Pyrroloisoquinolinyl-dimethyloxoalkyl alkonoates and their use as antipsychotic agents” (Hoffmann-La Roche Inc., priority 1986, dated 1988).
Values joined by “and” are separate entries in the source; they are usually repeats but may differ in a detail not shown here. Identical values can stand only once.

How the values were obtained:
[1] = Esterase cleavage of prodrug esters by incubation with rat liver homogenate; format: in vitro ADME; settings: liver 9000xg supernatant, rat liver 9,000×g supernatant, pH 7.4, 37° C., 0.5 μmole substrate, read-out: Formation of IIa (piquindone) as % of incubated test compound I in 1 hr.
Description: In this test, acetone solutions of the test compounds (0.5 μmole/50 μL) were added to an incubation medium consisting of 2.7 ml 0.1M potassium hydrogenphosphate (pH 7.4) and 0.3 ml rat liver 9,000×g supernatant. The media were then incubated for 1 hour at 37° C. Controls consisted of a sample containing the complete medium and substrate which was not incubated, a sample containing only phosphate buffer and substrate, and a sample containing the complete medium but lacking substrate.
The incubation media were fractionated with a Waters C-18 SEP-PAK. Prior to sample application, the SEP-PAK was washed with 10 ml of methanol and 20 ml of water. After sample application, the SEP-Pak was washed with 10 ml of water and 3 ml of methanol. The amount of the liberated compound of formula II was measured by high pressure liquid chromatography on a 30-cm Waters μ-Bondapak C-18 column, equilibrated with 70:30:1 methanol:water:ammonium hydroxide.

[2] = tested on: male SPF rats (conditioned avoidance response); test: Pole climb avoidance test; format: in vivo; settings: rat; for ED50 / ED (90-100): im, intramuscular in sesame oil; for ED50: at peak of action, read-out: Blockade of Avoidance Response (BAR), acute ED50; for ED (90-100): dose giving 90-100% block within 24 hours, read-out: Blockade of Avoidance Response (BAR), acute 100% BAR dose
Source text: In vivo activity. Pole Climb Avoidance Test. In the pole climb test, antipsychotics characteristically disrupt an acquired discrete conditioned avoidance behavior in doses well below those which suppress the response to unconditioned stimuli (escape). The principle of the test procedure was described by Courvoisier S. et al. (Arch. Int. Pharmacodyn 92, 305, 1954), Cook, L. et al. (Ann. N.Y. Acad. Sci. 66, 740-752, 1957) and Pfeiffer, C. et al. (Ann, N.Y. Acad. Sci. 66, 753-764, 1957).
The animals were male SPF rats (stock Fuellinsdorf Albino, outbred) weighing 200-220 g at the end of a discrete conditioned avoidance training.
The test apparatus was a sound-attenuated plexiglass chamber (41×30×30 cm). The floor was a grid consisting of 27 stainless steel rods, to which a scrambled current of 0,8 mA could be delivered by means of a stimulator. The safety area was a vertical pole (4,3 cm diameter, 24 cm long) attached to the top of the chamber. The free lower end of the pole was 6 cm above the grid floor. A buzzer was mounted within the testing enclosure.
The rats were placed in the plexiglass chamber and trained to jump to the pole during a buzzer stimulus (conditioned stimulus CS) lasting 10 sec, in order to avoid an immediately following electrical footshock (unconditioned stimulus US) of 30 sec duration delivered to the grid floor in addition to the CS. If the rat climbed to the pole during the CS or CS plus US, the stimuli (buzzer, footshock) were immediately terminated.
The pole climb response occurring during the CS period is called an avoidance response or conditioned response (CAR or CR), that occurring during exposure to CS plus US escape response of unconditioned response (UER or UR). Following one training trial (exposure to one CS and US respectively) the rats were returned to their home cage. After 15-17 trials rats were jumping during the buzzer stimulation only and were ready for drug testing.
A group of 10 trained rats was used per dose (graded doses, geometric progression: factor 3.16). The test compounds were administered intramuscularly in a sesame oil solution containing 25 mg of compounds per ml of solution.
Dose-effect curves of block of conditioned response (BCR) were constructed by plotting the log dose against the effect (in percent BCR) at the peak of action. From these curves the ED50 for BCR were graphically determined. The potency of a drug for suppressing CR was expressed by the ED50 for BCR. For the evaluation of the long-term effect, a drug dose eliciting a non-supra-maximal 90-100% block of avoidance response within 24 hours was followed up at 24 hour intervals.

[3] = target: T1, dopamine receptors (Rattus norvegicus, UniProt P61169); test: 3H-spiroperidol binding test in rat striatal brain homogenates; settings: 0.2 nanomolar 3H-spiroperidol, 20 min incubation, no esterases, read-out: 3H-Spiroperidol binding in vitro, IC50
T1 construct: rat striatal brain homogenates; from tissue; host or cells: rat striatum (brain homogenate)
Description: Spiroperidol binding test. In the absence of esterases which trigger the release of the compound of formula II from the compound of formula I, there is only weak activity in the 3H-spiroperiodol binding assay, an in vitro test which measures binding to dopamine receptors. In this test, rat striatal brain homogenates were incubated for 20 min. in the presence of 0.2 nanomolar ^3 H-spiroperidol and varying concentrations of test compounds. The incubations were terminated by rapid filtration through Whatman GF/B filters. followed by 2×5 mL washes with ice-cold assay buffer (50 mM tribase-HCl pH 7.7 which contains fixed concentrations of 0.1% ascorbic acid, 120 mM sodium chloride, 5 mM potassium chloride, 2 mM calcium chloride, and 1 mM magnesium chloride).

[4] = single i.m. 100% BAR dose in sesame oil

T1 sequence (P61169 whole entry): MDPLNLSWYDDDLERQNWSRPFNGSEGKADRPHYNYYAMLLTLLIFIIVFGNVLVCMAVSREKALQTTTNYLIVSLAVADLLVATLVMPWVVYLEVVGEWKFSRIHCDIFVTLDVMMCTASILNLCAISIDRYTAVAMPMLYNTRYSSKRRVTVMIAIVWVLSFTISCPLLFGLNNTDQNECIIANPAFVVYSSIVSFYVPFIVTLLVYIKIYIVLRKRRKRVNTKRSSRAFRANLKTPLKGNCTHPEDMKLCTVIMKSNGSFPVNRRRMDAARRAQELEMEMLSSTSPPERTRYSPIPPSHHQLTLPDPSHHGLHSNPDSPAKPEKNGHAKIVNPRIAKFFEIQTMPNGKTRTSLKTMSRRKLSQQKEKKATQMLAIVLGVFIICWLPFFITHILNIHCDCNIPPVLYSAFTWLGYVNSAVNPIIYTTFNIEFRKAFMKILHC

SMILES	metabolised at 1 h [1] [%]	IC50 [3]	ED50 [2] [mg/kg]	ED (90-100) [2] [mg/kg]	Duration: % BAR, Day 1 [2, 4] [%]	Duration: % BAR, Day 2 [2, 4] [%]	Duration: % BAR, Day 3 ([2]; single i.m. 100% BAR dose in sesame oil, Day 3) [%]	Duration: % BAR, Day 4 ([2]; single i.m. 100% BAR dose in sesame oil, Day 4) [%]	Duration: % BAR, Day 5 ([2]; single i.m. 100% BAR dose in sesame oil, Day 5) [%]	Duration: % BAR, Day 6-13 ([2]; single i.m. 100% BAR dose in sesame oil, Days 6-13)
CCCCCCCCCC(=O)OCCC(C)(C)C(=O)n1c(C)c(CC)c2c1C[C@H]1CCN(C)C[C@@H]1C2=O (relative stereo) [Ic, 2,6-Dimethyl-1-[2,2-dimethyl-4-[(1-oxodecyl)oxy]-1-oxo-butyl]-3-ethyl-1,4a,5,6,7,8,8a,9-octahydro-4a,8a-trans-4H-pyrrolo[2,3-g]isoquinolin-4-one]	102	870 nM and 1000 nM	3.6	10	100	100	100	90	80	50-60%
CCCCCCCCCCCCCCCCCC(=O)OCCC(C)(C)C(=O)n1c(C)c(CC)c2c1C[C@H]1CCN(C)C[C@@H]1C2=O (relative stereo) [If, 2,6-Dimethyl-1-[2,2-dimethyl-4-[(1-oxooctadecyl)oxy]-1-oxobutyl]-3-ethyl-1,4a,5,6,7,8,8a,9-octahydro-4a,8a-trans-4H-pyrrolo[2,3-g]isoquinolin-4-one]	12.1 ± 0.4	1000 nM	16.2	30	100	10				
CCCCCCCCCCCCCCCCCCCC(=O)OCCC(C)(C)C(=O)n1c(C)c(CC)c2c1C[C@H]1CCN(C)C[C@@H]1C2=O (relative stereo) [Ig, 2,6-Dimethyl-1-[2,2-dimethyl-4-[(1-oxoeicosanoyl)oxy]-1-oxobutyl]-3-ethyl-1,4a,5,6,7,8,8a,9-octahydro-4a,8a-trans-4H-pyrrolo[2,3-g]isoquinolin-4-one]	11.7 ± 0.7	1000 nM	13.8	30	100	10				

Continued by falling IC50 [3], values first:

metabolised at 1 h [1] [%]	IC50 [3]	SMILES	ED50 [2] [mg/kg]	ED (90-100) [2] [mg/kg]	Duration: % BAR, Day 1 [2, 4] [%]	Duration: % BAR, Day 2 [2, 4] [%]	Duration: % BAR, Day 3 ([2]; single i.m. 100% BAR dose in sesame oil, Day 3) [%]	Duration: % BAR, Day 4 ([2]; single i.m. 100% BAR dose in sesame oil, Day 4) [%]	Duration: % BAR, Day 5 ([2]; single i.m. 100% BAR dose in sesame oil, Day 5) [%]	Duration: % BAR, Day 6-13 ([2]; single i.m. 100% BAR dose in sesame oil, Days 6-13)
31 ± 1	640 nM	CCCCCCCCCCCCCCCC(=O)OCCC(C)(C)C(=O)n1c(C)c(CC)c2c1C[C@H]1CCN(C)C[C@@H]1C2=O (relative stereo) [Ie, 2,6-Dimethyl-1-[2,2-dimethyl-4-[(1-oxohexadecyl)oxy]-1-oxobutyl]-3-ethyl-1,4a,5,6,7,8,8a,9-octahydro-4a,8a-trans-4H-pyrrolo[2,3-g]isoquinolin-4-one]	17	30	100	10				
77.2 ± 0.8	570 nM	CCCCCCCCCCCC(=O)OCCC(C)(C)C(=O)n1c(C)c(CC)c2c1C[C@H]1CCN(C)C[C@@H]1C2=O (relative stereo) [Id, 2,6-Dimethyl-1-[2,2-dimethyl-4-[(1-oxododecyl)oxy]-1-oxobutyl]-3-ethyl-1,4a,5,6,7,8,8a,9-octahydro-4a,8a-trans-4H-pyrrolo[2,3-g]isoquinolin-4-one]								
88 ± 2	250 nM	CCc1c2c(n(C(=O)C(C)(C)CCOC(C)=O)c1C)C[C@H]1CCN(C)C[C@@H]1C2=O (relative stereo) [Ia]	0.6	3	90	50				
104 ± 3.3	195 nM	CCCCCCCC(=O)OCCC(C)(C)C(=O)n1c(C)c(CC)c2c1C[C@H]1CCN(C)C[C@@H]1C2=O (relative stereo) [Ib, 2,6-Dimethyl-1-[2,2-dimethyl-4-[(1-oxooctyl)oxy]-1-oxobutyl]-3-ethyl-1,4a,5,6,7,8,8a,9-octahydro-4a,8a-trans-4H-pyrrolo[2,3-g]isoquinolin-4-one]								
